Here are results for one molecule from article PMC12654176 (Microorganisms, 2025).

This assay has as its system H10NX AIVs NA activity. Format: biochemical.

As usually defined, the IC50 is the concentration at which inhibition is half-maximal.

The structures appear in SMILES notation.

As for `CC(=O)N[C@H]1[C@H]([C@H](O)[C@H](O)CO)OC(C(=O)O)=C[C@@H]1N=C(N)N` [Zanamivir, zanamivir], the “susceptibility of H10NX isolates to the drug (phenotypic assay)” value is recorded as “sensitive”. Where the note is “read-out: mean IC50 values, range over the H10NX isolates tested”, the concentration for half-maximal inhibition (IC50) was 0.7 to 1.3 nM.
